Data from patent US9713613B2, “Methods and compositions for the treatment of cancer and related hyperproliferative disorders” (priority 2007, dated 2017).

Test system: 3T3-L1 cells
Assay: adipogenesis assay (formation of oil droplets)
Format: cell-based, mouse
Design: key: +: The analogues that completely inhibited the formation of oil droplets in cells were scored to be adipogenesis-inhibiting analogues
Details: formation of oil droplets in cells
Description: The adipogenesis assay was performed as described (Choi et al., 2003).

Row | SMILES | Inhibition of adipogenesis
1 | CCCc1cc(-c2nc(-c3ccc(OC(=O)c4ccccc4)cc3)cs2)ccn1 [Compound 8, 4-(2-(2-propylpyridin-4-yl)thiazol-4-yl)phenylbenzoate] | +
2 | CCCc1cc(-c2nc(-c3ccc(O)cc3)cs2)ccn1 [Compound 9, 4-(2-(2-propylpyridin-4-yl)thiazol-4-yl)phenol] | +
3 | CCCc1cc(-c2nc(-c3ccc(N)cc3)cs2)ccn1 [Compound 16, 4-(2-(2-propylpyridin-4-yl)thiazol-4-yl)benzenamine] | +
4 | CCCc1cc(-c2nc(-c3ccc(NC(C)=O)cc3)cs2)ccn1 [Compound 18, N-(4-(2-(2-propylpyridin-4-yl)thiazol-4-yl)phenyl)acetamide] | +
5 | CCCc1cc(-c2nc(-c3ccc(NCc4ccccc4)cc3)cs2)ccn1 [Compound 20, N-benzyl-4-(2-(2-propylpyridin-4-yl)thiazol-4-yl)benzenamine] | +
6 | CCCc1cc(-c2nc(-c3ccc(NCC4CC4)cc3)cs2)ccn1 [Compound 21, N-(cyclopropylmethyl)-4-(2-(2-propylpyridin-4-yl)thiazol-4-yl)benzenamine] | +
7 | CCCc1cc(-c2nc(-c3ccc(Br)cc3)c(C(=O)OC)s2)ccn1 [Compound 23, methyl 4-(4-bromophenyl)-2-(2-propylpyridin-4-yl)thiazole-5-carboxylate] | +
8 | CCCc1cc(-c2nc(-c3ccccc3OC)cs2)ccn1 [Compound 26, 4-(4-(2-methoxyphenyl)thiazol-2-yl)-2-propylpyridine] | +
9 | CCCc1cc(-c2nc(-c3cccs3)cs2)ccn1 [Compound 34, 2-propyl-4-(4-(thiophen-2-yl)thiazol-2-yl)pyridine] | +
10 | CCCc1cc(-c2ccc(-c3ccc(C)cc3)cc2)ccn1 [Compound 35] | +

Test system: endogenous SREBPs
Assay: Luciferase reporter assay (pSRE-Luc, normalized by β-gal) in HEK293 cells
Format: cell-based, human
Design: Luc/Gal: dose or concentration left out as unconfirmed
Details: entries 1, 19-34 (FIG. 16); None = 15.0759
Description: On day 0, HEK293 cells were plated out in triplicate at a density of 5×10^3/well onto a 96-well plate in a Dulbecco's modified Eagle's medium with 10% fetal bovine serum, 100 units/mL penicillin, and 100 μg/mL streptomycin sulfate. On day 2, the cells were transiently co-transfected with the following plasmids by using Lipofectamine reagent (Invitrogen): 0.4 μg/well pSRE-Luc (an SRE-1-driven luciferase reporter construct; Hua et al., 1995 J Biol Chem 270, 29422-7), and 0.1 μg/well a b-gal reporter in which the expression of β-gal is controlled by an actin promoter in a final volume of […]. After incubation for 5 hrs at 37° C., the cells were washed with phosphate-buffered saline and then incubated in 100 μl of Dulbecco's modified Eagle's medium with 10% lipid-depleted serum, […] penicillin, and 100 μg/mL streptomycin sulfate in the absence or presence of fatostatin A. After 20 hrs of incubation, the cells in each well were lysed with 20 μL of 1× Reporter Lysis Buffer (Promega), and aliquots were used for measurement of luciferase (10 μL) and β-galactosidase (10 μL) activities. For luciferase assay, photon production was detected as counts per second in a Wallac 1420 ARVOsx multilabel counter (PerkinElmer). For β-galactosidase assays, hydrolysis of O-nitrophenyl-β-D-galactosidase was measured after incubation for 0.5 h at 37° C. by a microplate reader at the wave length of 405 nm (Tecan). The luciferase activity (counts per second) was normalized by the activity of β-galactosidase (OD units). For overexpression of the N-terminal matured form of SREBP-1c, pCMV-SREBP-1c (1-436) was co-transfected with pSRE-Luc. pSRE-Luc and pCMV-SREBP-1c (1-436) were provided by J. L. Goldstein (University of Texas Southwestern Medical Center). […]

Row | SMILES | Luc/Gal
11 | CCCc1cc(-c2nc(-c3ccc(NCc4ccccc4)cc3)cs2)ccn1 [Compound 20, N-benzyl-4-(2-(2-propylpyridin-4-yl)thiazol-4-yl)benzenamine] | 5.6748
12 | CCCc1cc(-c2nc(-c3ccc(NCC4CC4)cc3)cs2)ccn1 [Compound 21, N-(cyclopropylmethyl)-4-(2-(2-propylpyridin-4-yl)thiazol-4-yl)benzenamine] | 6.4378
13 | CCCc1cc(-c2nc(-c3ccc(Br)cc3)c(C(=O)O)s2)ccn1 [Compound 22, 4-(4-bromophenyl)-2-(2-propylpyridin-4-yl)thiazole-5-carboxylic acid] | 21.5911
14 | CCCc1cc(-c2nc(-c3ccc(Br)cc3)c(C(=O)OC)s2)ccn1 [Compound 23, methyl 4-(4-bromophenyl)-2-(2-propylpyridin-4-yl)thiazole-5-carboxylate] | 8.1137
15 | CCCc1cc(-c2nc(-c3ccc(OC)cc3)cs2)ccn1 [Compound 24, 4-(4-(4-methoxyphenyl)thiazol-2-yl)-2-propylpyridine] | 11.0367
16 | CCCc1cc(-c2nc(-c3cccc(OC)c3)cs2)ccn1 [Compound 25, 4-(4-(3-methoxyphenyl)thiazol-2-yl)-2-propylpyridine] | 7.8536
17 | CCCc1cc(-c2nc(-c3ccccc3OC)cs2)ccn1 [Compound 26, 4-(4-(2-methoxyphenyl)thiazol-2-yl)-2-propylpyridine] | 8.3046
18 | Cc1ccc(-c2csc(-c3ccccc3)n2)cc1 [Compound 27, 2-phenyl-4-p-tolylthiazole] | 13.8222
19 | CCCc1cc(-c2nc(-c3cccc(O)c3)cs2)ccn1 [Compound 28, 3-(2-(2-propylpyridin-4-yl)thiazol-4-yl)phenol] | 12.7791
20 | CCCc1cc(-c2nc(-c3ccccc3O)cs2)ccn1 [Compound 29, 2-(2-(2-propylpyridin-4-yl)thiazol-4-yl)phenol] | 8.2379
21 | CCCc1cc(-c2nc(-c3ccc(Br)cc3)c(C(=O)NC(C)C)s2)ccn1 [Compound 30, 4-(4-bromophenyl)-N-isopropyl-2-(2-propylpyridin-4-yl)thiazole-5-carboxamide] | 16.0226
22 | Clc1ccc(-c2csc(-c3ccncc3)n2)cc1 [Compound 31, 4-(4-(4-chlorophenyl)thiazol-2-yl)pyridine] | 16.9971
23 | CCc1cc(-c2nc(-c3ccc(Cl)cc3)cs2)ccn1 [Compound 32, 4-(4-(4-chlorophenyl)thiazol-2-yl)-2-ethylpyridine] | 9.5798
24 | Clc1ccc(-c2csc(-c3ccccc3)n2)cc1 [Compound 33, 4-(4-chlorophenyl)-2-phenylthiazole] | 17.8175
25 | CCCc1cc(-c2nc(-c3cccs3)cs2)ccn1 [Compound 34, 2-propyl-4-(4-(thiophen-2-yl)thiazol-2-yl)pyridine] | 12.1593

Same assay, conditions: entries 1, 35-39 (FIG. 17); None = 18

Row | SMILES | Luc/Gal
26 | CCCc1cc(-c2ccc(-c3ccc(C)cc3)cc2)ccn1 [Compound 35] | 11.36
27 | CCCc1cc(-c2nc(-c3ccc(C)cc3)c(C(=O)O)s2)ccn1 [Compound 36, 2-(2-propylpyridin-4-yl)-4-p-tolylthiazole-5-carboxylic acid] | 18.99
28 | CCc1cc(-c2nc(-c3ccc(C)cc3)cs2)ccn1 [Compound 37, 2-ethyl-4-(4-p-tolylthiazol-2-yl)pyridine] | 9.87
29 | CCCc1cc(-c2nc(-c3ccccc3)c(C(=O)O)s2)ccn1 [Compound 38, 4-phenyl-2-(2-propylpyridin-4-yl)thiazole-5-carboxylic acid] | 22.66
30 | CCCc1cc(-c2nc(-c3ccc(C)cc3)c(C(=O)OC)s2)ccn1 [Compound 39, methyl 2-(2-propylpyridin-4-yl)-4-p-tolylthiazole-5-carboxylate] | 14.93

Same assay, conditions: entries 1, 40-44 (FIG. 17); None = 8.2181

Row | SMILES | Luc/Gal
31 | CCCc1cc(-c2nc(-c3ccc(NC(=O)OC(C)(C)C)cc3)cs2)ccn1 [Compound 40, tert-butyl 4-(2-(2-propylpyridin-4-yl)thiazol-4-yl)phenylcarbamate] | 2.4390
32 | CCCc1cc(-c2nc(-c3ccc(NC4CCCCC4)cc3)cs2)ccn1 [Compound 41, N-cyclohexyl-4-(2-(2-propylpyridin-4-yl)thiazol-4-yl)benzenamine] | 6.5229
33 | CCCc1cc(-c2nc(-c3ccc(NS(=O)(=O)c4ccc(C)cc4)cc3)cs2)ccn1 [Compound 42, 4-(2-(2-propylpyridin-4-yl)thiazol-4-yl)-N-tosylbenzenamine] | 3.3957
34 | CCCc1cc(-c2nc(-c3ccc(NS(=O)(=O)c4cccc5cccnc45)cc3)cs2)ccn1 [Compound 43, N-(4-(2-(2-propylpyridin-4-yl)thiazol-4-yl)phenyl)-8-quinolinesulfonamide] | 2.8506
35 | CCCc1cc(-c2nc(-c3ccc(NS(=O)(=O)c4cccs4)cc3)cs2)ccn1 [Compound 44, N-(4-(2-(2-propylpyridin-4-yl)thiazol-4-yl)phenyl)-2-thiophenesulfonamide] | 1.8538

Same assay, conditions: entries 1-18 (FIG. 15); none = 9.4426

Row | SMILES | Luc/Gal
36 | CCCc1cc(-c2nc(-c3ccc(Br)cc3)cs2)ccn1 [Compound 2, 4-(4-(4-bromophenyl)thiazol-2-yl)-2-propylpyridine] | 4.5130
37 | CCCc1cc(-c2nc(-c3ccccc3)cs2)ccn1 [Compound 3, 4-(4-phenylthiazol-2-yl)-2-propylpyridine] | 7.4643
38 | CCCc1cc(-c2nc(-c3ccc(Cl)cc3)cs2)ccn1 [Compound 4, 4-(4-(4-chlorophenyl)thiazol-2-yl)-2-propylpyridine] | 6.3808
39 | CCc1ccc(-c2csc(-c3ccncc3)n2)cc1 [Compound 5, 4-(4-(4-ethylphenyl)thiazol-2-yl)pyridine] | 7.6190
40 | Cc1ccc(-c2csc(-c3ccncc3)n2)cc1 [Compound 6, 4-(4-p-tolylthiazol-2-yl)pyridine] | 13.4689
41 | COc1ccc(-c2csc(-c3ccncc3)n2)cc1 [Compound 7, 4-(4-(4-methoxyphenyl)thiazol-2-yl)pyridine] | 18.3174
42 | CCCc1cc(-c2nc(-c3ccc(OC(=O)c4ccccc4)cc3)cs2)ccn1 [Compound 8, 4-(2-(2-propylpyridin-4-yl)thiazol-4-yl)phenylbenzoate] | 7.7585
43 | CCCc1cc(-c2nc(-c3ccc(O)cc3)cs2)ccn1 [Compound 9, 4-(2-(2-propylpyridin-4-yl)thiazol-4-yl)phenol] | 14.5234
44 | CCCc1cc(-c2nc(-c3ccc(OCC(=O)OC)cc3)cs2)ccn1 [Compound 10, methyl 2-(4-(2-(2-propylpyridin-4-yl)thiazol-4-yl)phenoxy)acetate] | 10.7717
45 | COc1ccc(-c2nc(-c3ccc(Cl)cc3)cs2)cc1OC [Compound 12, 4-(4-chlorophenyl)-2-(3,4-dimethoxyphenyl)thiazole] | 5.9214
46 | CCCc1cc(-c2nc(-c3ccc(Cl)c(Cl)c3)cs2)ccn1 [Compound 13, 4-(4-(3,4-dichlorophenyl)thiazol-2-yl)-2-propylpyridine] | 5.2391
47 | CCCc1cc(-c2nc(-c3ccc(F)cc3)cs2)ccn1 [Compound 14, 4-(4-(4-fluorophenyl)thiazol-2-yl)-2-propylpyridine] | 9.6605
48 | CCCc1cc(-c2nc(-c3ccc(F)cc3F)cs2)ccn1 [Compound 15, 4-(4-(2,4-difluorophenyl)thiazol-2-yl)-2-propylpyridine] | 10.8383
49 | CCCc1cc(-c2nc(-c3ccc(N)cc3)cs2)ccn1 [Compound 16, 4-(2-(2-propylpyridin-4-yl)thiazol-4-yl)benzenamine] | 10.3338
50 | CCCc1cc(-c2nc(-c3ccc(NC(C)=O)cc3)cs2)ccn1 [Compound 18, N-(4-(2-(2-propylpyridin-4-yl)thiazol-4-yl)phenyl)acetamide] | 11.7685
